Assay results as given in PubChem BioAssay AID2060618 (Molecular Pharmacology Branch, DTP, NCI, 2025).
pIC50: −log10 of the molar value.

Tested on: 454973-116-R2-J3-PDC spheroids, percent test/control viability
Experiment: Anticancer human tumor 454973-116-R2-J3-PDC patient-derived pancreatic carcinoma cell line growth inhibition [CLK]
Details: spheroids with HUVEC and MSC; for pIC50: curve of first compound; for viability, T/C: stronger effect = lower value
In short: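 Patient-derived tumor cells grown as complex spheroids with HUVEC endothelial cells and mesenchymal stem cells, treated with drug combinations. Concentrations descend in half-log steps from near clinical Cmax, or from 10 microM if Cmax unknown.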

[1] = second compound 0.0316 µM, first compound 0.0316 µM
[2] = second compound 0.0316 µM, first compound 0.1 µM
[3] = second compound 0.1 µM, first compound 0.0316 µM
[4] = second compound 0.1 µM, first compound 0.1 µM
[5] = second compound 0.316 µM, first compound 0.0316 µM
[6] = second compound 0.316 µM, first compound 0.1 µM
[7] = second compound 1 µM, first compound 0.0316 µM
[8] = second compound 1 µM, first compound 0.1 µM
[9] = second compound 3.16 µM, first compound 0.0316 µM
[10] = second compound 3.16 µM, first compound 0.1 µM
[11] = second compound 10 µM, first compound 0.0316 µM
[12] = second compound 10 µM, first compound 0.1 µM
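Note: spheroids exposed to compounds for 7 days before readout.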

For `Cn1ncnc1[C@H]1c2n[nH]c(=O)c3cc(F)cc(c23)N[C@@H]1c1ccc(F)cc1` + CNC(=O)c1ccc(Nc2nc(OC3CCCC3)c3c(-c4ccc5nc(C)oc5c4)c[nH]c3n2)c(OC)c1, the pIC50 (second compound 0.0316 µM) was < 7.00, the pIC50 (second compound 0.1 µM) was < 7.00 and the pIC50 (second compound 0.316 µM) was > 9.50. The pIC50 (second compound 1 µM) was > 9.50, the pIC50 (second compound 3.16 µM) was > 9.50 and the pIC50 (second compound 10 µM) was > 9.50. For the same compound, the viability, T/C (second compound 0.0316 µM, first compound 0.000316 µM) was 110%, the viability, T/C (second compound 0.0316 µM, first compound 0.001 µM) was 114% and the viability, T/C (second compound 0.0316 µM, first compound 0.00316 µM) was 110%. The viability, T/C (second compound 0.0316 µM, first compound 0.01 µM) was 119%, the viability, T/C [1] was 105% and the viability, T/C [2] was 86.2%. For the same compound, the viability, T/C (second compound 0.1 µM, first compound 0.000316 µM) was 113%, the viability, T/C (second compound 0.1 µM, first compound 0.001 µM) was 104% and the viability, T/C (second compound 0.1 µM, first compound 0.00316 µM) was 104%. It also gave a viability, T/C (second compound 0.1 µM, first compound 0.01 µM) of 106%, a viability, T/C [3] of 104% and a viability, T/C [4] of 86.4%. The viability, T/C (second compound 0.316 µM, first compound 0.000316 µM) was 43.1%, the viability, T/C (second compound 0.316 µM, first compound 0.001 µM) was 51.2% and the viability, T/C (second compound 0.316 µM, first compound 0.00316 µM) was 50.8%. For the same compound, the viability, T/C (second compound 0.316 µM, first compound 0.01 µM) was 52.2%, the viability, T/C [5] was 52.2% and the viability, T/C [6] was 48.1%. The viability, T/C (second compound 1 µM, first compound 0.000316 µM) was 33.1%, the viability, T/C (second compound 1 µM, first compound 0.001 µM) was 31.5% and the viability, T/C (second compound 1 µM, first compound 0.00316 µM) was 27.8%. It also gave a viability, T/C (second compound 1 µM, first compound 0.01 µM) of 36.4%, a viability, T/C [7] of 31.1% and a viability, T/C [8] of 23.5%. For the same compound, the viability, T/C (second compound 3.16 µM, first compound 0.000316 µM) was 29.2%, the viability, T/C (second compound 3.16 µM, first compound 0.001 µM) was 26.7% and the viability, T/C (second compound 3.16 µM, first compound 0.00316 µM) was 29%. For the same compound, the viability, T/C (second compound 3.16 µM, first compound 0.01 µM) was 25.7%, the viability, T/C [9] was 23.9% and the viability, T/C [10] was 21.4%. The viability, T/C (second compound 10 µM, first compound 0.000316 µM) was 25.5%, the viability, T/C (second compound 10 µM, first compound 0.001 µM) was 27.6% and the viability, T/C (second compound 10 µM, first compound 0.00316 µM) was 25.8%. The viability, T/C (second compound 10 µM, first compound 0.01 µM) was 21.7%, the viability, T/C [11] was 24.5% and the viability, T/C [12] was 19.6%.

In the case of `O=C(c1cc(Cc2n[nH]c(=O)c3ccccc23)ccc1F)N1CCN(C(=O)C2CC2)CC1` + CNC(=O)c1ccc(Nc2nc(OC3CCCC3)c3c(-c4ccc5nc(C)oc5c4)c[nH]c3n2)c(OC)c1, the pIC50 (second compound 0.0316 µM) was < 5.00, the pIC50 (second compound 0.1 µM) was < 5.00 and the pIC50 (second compound 0.316 µM) was > 7.50. For the same compound, the pIC50 (second compound 1 µM) was > 7.50, the pIC50 (second compound 3.16 µM) was > 7.50 and the pIC50 (second compound 10 µM) was > 7.50. For the same compound, the viability, T/C [1] was 94.7%, the viability, T/C [2] was 107% and the viability, T/C (second compound 0.0316 µM, first compound 0.316 µM) was 98.4%. For the same compound, the viability, T/C (second compound 0.0316 µM, first compound 1 µM) was 104%, the viability, T/C (second compound 0.0316 µM, first compound 3.16 µM) was 94.6% and the viability, T/C (second compound 0.0316 µM, first compound 10 µM) was 75.9%. The viability, T/C [3] was 101%, the viability, T/C [4] was 105% and the viability, T/C (second compound 0.1 µM, first compound 0.316 µM) was 95.8%. The viability, T/C (second compound 0.1 µM, first compound 1 µM) was 101%, the viability, T/C (second compound 0.1 µM, first compound 3.16 µM) was 92.8% and the viability, T/C (second compound 0.1 µM, first compound 10 µM) was 77.4%. The viability, T/C [5] was 39.6%, the viability, T/C [6] was 52.1% and the viability, T/C (second compound 0.316 µM, first compound 0.316 µM) was 40.9%. For the same compound, the viability, T/C (second compound 0.316 µM, first compound 1 µM) was 51.4%, the viability, T/C (second compound 0.316 µM, first compound 3.16 µM) was 47.8% and the viability, T/C (second compound 0.316 µM, first compound 10 µM) was 40.3%. It also gave a viability, T/C [7] of 36.5%, a viability, T/C [8] of 33.9% and a viability, T/C (second compound 1 µM, first compound 0.316 µM) of 31.4%. For the same compound, the viability, T/C (second compound 1 µM, first compound 1 µM) was 33.3%, the viability, T/C (second compound 1 µM, first compound 3.16 µM) was 29.9% and the viability, T/C (second compound 1 µM, first compound 10 µM) was 24.3%. For the same compound, the viability, T/C [9] was 32.3%, the viability, T/C [10] was 33.2% and the viability, T/C (second compound 3.16 µM, first compound 0.316 µM) was 35.1%. It also gave a viability, T/C (second compound 3.16 µM, first compound 1 µM) of 32%, a viability, T/C (second compound 3.16 µM, first compound 3.16 µM) of 29.4% and a viability, T/C (second compound 3.16 µM, first compound 10 µM) of 22.5%. For the same compound, the viability, T/C [11] was 26.3%, the viability, T/C [12] was 33.6% and the viability, T/C (second compound 10 µM, first compound 0.316 µM) was 30.4%. It also gave a viability, T/C (second compound 10 µM, first compound 1 µM) of 29.4%, a viability, T/C (second compound 10 µM, first compound 3.16 µM) of 28.2% and a viability, T/C (second compound 10 µM, first compound 10 µM) of 23.8%.
